Common to all, as to format: biochemical
In experiment [1] the target is T1, human JAK1 (a.a. 837-1142) catalytic domain (Homo sapiens, UniProt P23458).
T1 construct: human JAK1 (a.a. 837-1142) and JAK2 (a.a. 828-1132); His tag (N); made in house; host or cells: insect cells (baculovirus)
The experiment can be described thus: In vitro JAK kinase assay (HTRF, phosphorylation of a biotinylated peptide), JAK1. The following applies: 1 mM ATP. The protocol: (§1) Compounds herein were tested for inhibitory activity of JAK targets according to the following in vitro assay described in Park et al., Analytical Biochemistry 1999, 269, 94-104. The catalytic domains of human JAK1 (a.a. 837-1142) and JAK2 (a.a. 828-1132) with an N-terminal His tag were expressed using baculovirus in insect cells and purified. The catalytic activity of JAK1 and JAK2 was assayed by measuring the phosphorylation of a biotinylated peptide. The phosphorylated peptide was detected by homogenous time resolved fluorescence (HTRF). IC50s of compounds were measured for each kinase in the 40 microL reactions that contain the enzyme, ATP and 500 nM peptide in 50 mM Tris (pH 7.8) buffer with 100 mM NaCl, 5 mM DTT, and 0.1 mg/mL (0.01%) BSA. For the 1 mM IC50 measurements, ATP concentration in the reactions was 1 mM. Reactions were carried out at room temperature for 1 hour and then stopped with 20 μL 45 mM EDTA, 300 nM SA-APC, 6 nM Eu-Py20 in assay buffer (Perkin Elmer, Boston, Mass.). Binding to the Europium labeled antibody took place for 40 minutes and HTRF signal was measured on a Fusion plate reader (Perkin Elmer, Boston, Mass.). See Table A for data related to compounds of the Examples (at 1 mM). Data is indicated as ranges: <20 nM (+), 20 to <150 nM (++), 150 to 500 nM (+++).
A general note: TR-FRET usually uses a lanthanide donor and a delayed reading to cut background.

Experiment [2] deals with human JAK1 (a.a. 837-1142) catalytic domain. The description is as above. Particulars: ratio of JAK2 IC50 to JAK1 IC50, 1 mM ATP. The protocol:
as §1

Experiment [3] deals with T2, human JAK2 (a.a. 828-1132) catalytic domain (Homo sapiens, UniProt O60674).
T2 construct: human JAK1 (a.a. 837-1142) and JAK2 (a.a. 828-1132); His tag (N); made in house; host or cells: insect cells (baculovirus)
T2 sequence (O60674 828-1132): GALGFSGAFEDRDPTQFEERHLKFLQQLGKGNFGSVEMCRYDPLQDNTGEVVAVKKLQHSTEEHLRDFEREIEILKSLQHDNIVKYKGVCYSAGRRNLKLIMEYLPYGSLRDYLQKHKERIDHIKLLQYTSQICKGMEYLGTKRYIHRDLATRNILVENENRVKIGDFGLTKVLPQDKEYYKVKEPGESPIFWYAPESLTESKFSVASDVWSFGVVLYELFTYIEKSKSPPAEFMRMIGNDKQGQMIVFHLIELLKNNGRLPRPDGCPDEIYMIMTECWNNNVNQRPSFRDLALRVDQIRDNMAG
Kind of experiment: In vitro JAK kinase assay (HTRF, phosphorylation of a biotinylated peptide), JAK2. Particulars: 1 mM ATP. The protocol:
as §1

The structures appear in SMILES notation.

Broadly, the IC50 is the concentration that inhibits the measured activity by half. Read a low IC50 as inhibition by little substance.

T1 sequence (P23458 849-1154): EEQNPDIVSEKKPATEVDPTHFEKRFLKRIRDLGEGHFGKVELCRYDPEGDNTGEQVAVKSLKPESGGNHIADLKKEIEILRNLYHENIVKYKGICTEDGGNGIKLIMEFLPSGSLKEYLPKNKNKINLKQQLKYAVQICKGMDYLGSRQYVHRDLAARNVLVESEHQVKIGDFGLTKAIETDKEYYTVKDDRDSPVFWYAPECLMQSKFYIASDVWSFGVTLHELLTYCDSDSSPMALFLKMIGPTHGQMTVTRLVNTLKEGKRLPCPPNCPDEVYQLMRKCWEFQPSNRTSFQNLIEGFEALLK

On to `C[C@@H](CO)NCc1cc(OC2CCN([C@H]3C[C@](CC#N)(n4cc(-c5ncnc6[nH]ccc56)cn4)C3)CC2)nc(C(F)(F)F)c1` [Example 1, {trans-3-(4-{[4-({[(1S)-2-hydroxy-1-methylethyl]amino}methyl)-6-(trifluoromethyl)pyridin-2-yl]oxy}piperidin-1-yl)-1-[4-(7H-pyrrolo[2,3-d]pyrimidin-4-yl)-1H-pyrazol-1-yl]cyclobutyl}acetonitrile], for which the IC50 in experiment [1] was under 20 nM; in experiment [3] it was 20 to 150 nM. Moreover, in experiment [2], the JAK2/JAK1 is listed as over 10.
The like results for `C[C@H](CO)NCc1cc(OC2CCN([C@H]3C[C@](CC#N)(n4cc(-c5ncnc6[nH]ccc56)cn4)C3)CC2)nc(C(F)(F)F)c1` [Example 2, {trans-3-(4-{[4-({[(1R)-2-hydroxy-1-methylethyl]amino}methyl)-6-(trifluoromethyl)pyridin-2-yl]oxy}piperidin-1-yl)-1-[4-(7H-pyrrolo[2,3-d]pyrimidin-4-yl)-1H-pyrazol-1-yl]cyclobutyl}acetonitrile] were, in that order, under 20 nM, 20 to 150 nM and over 10.
For `COCCNCc1cc(OC2CCN([C@H]3C[C@](CC#N)(n4cc(-c5ncnc6[nH]ccc56)cn4)C3)CC2)nc(C(F)(F)F)c1` [Example 3, {trans-3-(4-{[4-{[(2-methoxyethyl)amino]methyl}-6-(trifluoromethyl)pyridin-2-yl]oxy}piperidin-1-yl)-1-[4-(7H-pyrrolo[2,3-d]pyrimidin-4-yl)-1H-pyrazol-1-yl]cyclobutyl}acetonitrile], the IC50 in experiment [1] is under 20 nM; in experiment [3] it was 20 to 150 nM. Also, in experiment [2], the JAK2/JAK1 is over 10.
As for `N#CC[C@]1(n2cc(-c3ncnc4[nH]ccc34)cn2)C[C@H](N2CCC(Oc3cc(CN4CC(C#N)C4)cc(C(F)(F)F)n3)CC2)C1` [Example 4, 1-{[2-[(1-{trans-3-(cyanomethyl)-3-[4-(7H-pyrrolo[2,3-d]pyrimidin-4-yl)-1H-pyrazol-1-yl]cyclobutyl}piperidin-4-yl)oxy]-6-(trifluoromethyl)pyridin-4-yl]methyl}azetidine-3-carbonitrile], the half-inhibitory concentration (IC50) in experiment [1] was under 20 nM; in experiment [3], 20 to 150 nM. In experiment [2], the JAK2/JAK1 is recorded as over 10.
In the case of `N#CC[C@]1(n2cc(-c3ncnc4[nH]ccc34)cn2)C[C@H](N2CCC(Oc3cc(CNC4CCOCC4)cc(C(F)(F)F)n3)CC2)C1` [Example 5, [trans-1-[4-(7H-pyrrolo[2,3-d]pyrimidin-4-yl)-1H-pyrazol-1-yl]-3-(4-{[4-[(tetrahydro-2H-pyran-4-ylamino)methyl]-6-(trifluoromethyl)pyridin-2-yl]oxy}piperidin-1-yl)cyclobutyl]acetonitrile], the IC50 is under 20 nM in experiment [1] and 20 to 150 nM in experiment [3]. In addition, the JAK2/JAK1 in experiment [2] was over 10.
Regarding `N#CC[C@]1(n2cc(-c3ncnc4[nH]ccc34)cn2)C[C@H](N2CCC(Oc3cc(CN4CC5(COC5)C4)cc(C(F)(F)F)n3)CC2)C1` [Example 6, {trans-3-(4-{[4-(2-oxa-6-azaspiro[3.3]hept-6-ylmethyl)-6-(trifluoromethyl)pyridin-2-yl]oxy}piperidin-1-yl)-1-[4-(7H-pyrrolo[2,3-d]pyrimidin-4-yl)-1H-pyrazol-1-yl]cyclobutyl}acetonitrile], the half-maximal inhibitory concentration (IC50) in experiment [1] is under 20 nM; in experiment [3] it was 20 to 150 nM. The JAK2/JAK1 in experiment [2] is given as over 10.
In the case of `N#CC[C@]1(n2cc(-c3ncnc4[nH]ccc34)cn2)C[C@H](N2CCC(Oc3cc(CN[C@H]4CCOC4)cc(C(F)(F)F)n3)CC2)C1` [Example 7, [trans-1-[4-(7H-pyrrolo[2,3-d]pyrimidin-4-yl)-1H-pyrazol-1-yl]-3-(4-{[4-{[(3S)-tetrahydrofuran-3-ylamino]methyl}-6-(trifluoromethyl)pyridin-2-yl]oxy}piperidin-1-yl)cyclobutyl]acetonitrile], the half-inhibitory concentration (IC50) in experiment [1] was under 20 nM; in experiment [3], 20 to 150 nM. The JAK2/JAK1 in experiment [2] was over 10.
With `N#CC[C@]1(n2cc(-c3ncnc4[nH]ccc34)cn2)C[C@H](N2CCC(Oc3cc(CN[C@@H]4CCOC4)cc(C(F)(F)F)n3)CC2)C1` [Example 8, [trans-1-[4-(7H-pyrrolo[2,3-d]pyrimidin-4-yl)-1H-pyrazol-1-yl]-3-(4-{[4-{[(3R)-tetrahydrofuran-3-ylamino]methyl}-6-(trifluoromethyl)pyridin-2-yl]oxy}piperidin-1-yl)cyclobutyl]acetonitrile], the half-inhibitory concentration (IC50) in experiment [1] was under 20 nM; in experiment [3], 20 to 150 nM. Moreover, the JAK2/JAK1 in experiment [2] is on record as over 10.
The like results for `CC1(NCc2cc(OC3CCN([C@H]4C[C@](CC#N)(n5cc(-c6ncnc7[nH]ccc67)cn5)C4)CC3)nc(C(F)(F)F)c2)COC1` [Example 9, {trans-3-(4-{[4-{[(3-methyloxetan-3-yl)amino]methyl}-6-(trifluoromethyl)pyridin-2-yl]oxy}piperidin-1-yl)-1-[4-(7H-pyrrolo[2,3-d]pyrimidin-4-yl)-1H-pyrazol-1-yl]cyclobutyl}acetonitrile] were, in that order, under 20 nM, 20 to 150 nM and over 10.
On to `CC1(NCc2cc(OC3CCN([C@H]4C[C@](CC#N)(n5cc(-c6ncnc7[nH]ccc67)cn5)C4)CC3)nc(C(F)(F)F)c2)CC1` [Example 10, {trans-3-(4-{[4-{[(1-methylcyclopropyl)amino]methyl}-6-(trifluoromethyl)pyridin-2-yl]oxy}piperidin-1-yl)-1-[4-(7H-pyrrolo[2,3-d]pyrimidin-4-yl)-1H-pyrazol-1-yl]cyclobutyl}acetonitrile], for which the values for the IC50 in experiment [1] and in experiment [3] were under 20 nM and 20 to 150 nM, respectively. Also, the JAK2/JAK1 in experiment [2] was over 10.
Consider `N#CC[C@]1(n2cc(-c3ncnc4[nH]ccc34)cn2)C[C@H](N2CCC(Oc3cc(CNC4COC4)cc(C(F)(F)F)n3)CC2)C1` [Example 11, {trans-3-(4-{[4-[(oxetan-3-ylamino)methyl]-6-(trifluoromethyl)pyridin-2-yl]oxy}piperidin-1-yl)-1-[4-(7H-pyrrolo[2,3-d]pyrimidin-4-yl)-1H-pyrazol-1-yl]cyclobutyl}acetonitrile], for which the values for the IC50 in experiment [1] and in experiment [3] were under 20 nM and 20 to 150 nM, respectively. In experiment [2], the JAK2/JAK1 was over 10.
As to `N#CC[C@]1(n2cc(-c3ncnc4[nH]ccc34)cn2)C[C@H](N2CCC(Oc3cc(CN[C@H]4C[C@H](O)C4)cc(C(F)(F)F)n3)CC2)C1` [Example 12, {trans-3-(4-{[4-{[(trans-3-hydroxycyclobutyl)amino]methyl}-6-(trifluoromethyl)pyridin-2-yl]oxy}piperidin-1-yl)-1-[4-(7H-pyrrolo[2,3-d]pyrimidin-4-yl)-1H-pyrazol-1-yl]cyclobutyl}acetonitrile], the concentration for half-maximal inhibition (IC50) is under 20 nM in experiment [1] and 20 to 150 nM in experiment [3]. Moreover, the JAK2/JAK1 in experiment [2] is over 10.
Take `CC1(C)CN(Cc2cc(OC3CCN([C@H]4C[C@](CC#N)(n5cc(-c6ncnc7[nH]ccc67)cn5)C4)CC3)nc(C(F)(F)F)c2)C1` [Example 13, {trans-3-(4-{[4-[(3,3-dimethylazetidin-1-yl)methyl]-6-(trifluoromethyl)pyridin-2-yl]oxy}piperidin-1-yl)-1-[4-(7H-pyrrolo[2,3-d]pyrimidin-4-yl)-1H-pyrazol-1-yl]cyclobutyl}acetonitrile]: the IC50 in experiment [1] was under 20 nM; in experiment [3], 20 to 150 nM. In addition, the JAK2/JAK1 in experiment [2] is over 10.
The like results for `C[C@@H](O)CNCc1cc(OC2CCN([C@H]3C[C@](CC#N)(n4cc(-c5ncnc6[nH]ccc56)cn4)C3)CC2)nc(C(F)(F)F)c1` [Example 14, {trans-3-(4-{[4-({[(2R)-2-hydroxypropyl]amino}methyl)-6-(trifluoromethyl)pyridin-2-yl]oxy}piperidin-1-yl)-1-[4-(7H-pyrrolo[2,3-d]pyrimidin-4-yl)-1H-pyrazol-1-yl]cyclobutyl}acetonitrile] were, in that order, under 20 nM, 20 to 150 nM and over 10.
Turning to `C[C@H](O)CNCc1cc(OC2CCN([C@H]3C[C@](CC#N)(n4cc(-c5ncnc6[nH]ccc56)cn4)C3)CC2)nc(C(F)(F)F)c1` [Example 15, {trans-3-(4-{[4-({[(2S)-2-hydroxypropyl]amino}methyl)-6-(trifluoromethyl)pyridin-2-yl]oxy}piperidin-1-yl)-1-[4-(7H-pyrrolo[2,3-d]pyrimidin-4-yl)-1H-pyrazol-1-yl]cyclobutyl}acetonitrile], the 50% inhibitory concentration (IC50) is under 20 nM in experiment [1] and 20 to 150 nM in experiment [3]. Besides, the JAK2/JAK1 in experiment [2] was over 10.
`N#CC[C@]1(n2cc(-c3ncnc4[nH]ccc34)cn2)C[C@H](N2CCC(Oc3cc(CN(CCO)CCO)cc(C(F)(F)F)n3)CC2)C1` [Example 16, {trans-3-(4-{[4-{[bis(2-hydroxyethyl)amino]methyl}-6-(trifluoromethyl)pyridin-2-yl]oxy}piperidin-1-yl)-1-[4-(7H-pyrrolo[2,3-d]pyrimidin-4-yl)-1H-pyrazol-1-yl]cyclobutyl}acetonitrile]: the IC50 in experiment [1] was under 20 nM; in experiment [3], 20 to 150 nM. In addition, in experiment [2], the JAK2/JAK1 is over 10.
